# Measurements as given in ChEMBL document CHEMBL3885881, “DrugMatrix”.
# Species: Rattus norvegicus
# Assay: DrugMatrix - Regimen: Daily Repeat
# Format: toxicity, organism-based, Sprague-Dawley
# Parameters: regimen Daily Repeat, gender Male, age 6-8 weeks
# Details: in vivo, po, route oral GAVAGE, […]; for ABSOLUTE BASOPHIL / ABSOLUTE EOSINOPHIL / ABSOLUTE LYMPHOCYTE / ABSOLUTE MONOCYTE / ABSOLUTE SEGMENTED NEUTROPHIL / BASOPHIL / EOSINOPHIL / ERYTHROCYTE COUNT / HEMATOCRIT / HEMOGLOBIN / LEUKOCYTE COUNT / LYMPHOCYTE / MEAN CORPUSCULAR HEMOGLOBIN / MEAN CORPUSCULAR HEMOGLOBIN CONCENTRATION / MONOCYTE / NEUTROPHIL / NUCLEATED RED BLOOD CELLS / PLATELET COUNT: tissue Blood; for ALANINE AMINOTRANSFERASE / ALBUMIN / ALKALINE PHOSPHATASE / ASPARTATE AMINOTRANSFERASE / BLOOD UREA NITROGEN / CARBON DIOXIDE / CHLORIDE / CHOLESTEROL / CREATINE PHOSPHOKINASE / CREATININE / LACTATE DEHYDROGENASE / LIPASE / PHOSPHORUS / POTASSIUM / SODIUM / TOTAL BILIRUBIN / TOTAL PROTEIN / URIC ACID: tissue Plasma
# [1] = 0 mg/kg, 72 h, dose level Control, time 3 day
# [2] = 0 mg/kg, 120 h, dose level Control, time 5 day
# [3] = 10 mg/kg, 72 h, dose level Low, time 3 day
smiles,measurement,setting,value
CN(CCOc1ccc(CC2SC(=O)NC2=O)cc1)c1ccccn1 (stereo not drawn) [ROSIGLITAZONE],ABSOLUTE BASOPHIL,[1],0 CELLS/uL
same,ABSOLUTE EOSINOPHIL,[1],14 CELLS/uL
same,ABSOLUTE LYMPHOCYTE,[1],11144.67 CELLS/uL
same,ABSOLUTE MONOCYTE,[1],22.5 CELLS/uL
same,ABSOLUTE SEGMENTED NEUTROPHIL,[1],535.5 CELLS/uL
same,BASOPHIL,[1],0%
same,EOSINOPHIL,[1],0.17%
same,ERYTHROCYTE COUNT,[1],5.08 x10E6/uL
same,HEMATOCRIT,[1],32.32%
same,HEMOGLOBIN,[1],12.87 G/DL
same,LEUKOCYTE COUNT,[1],11.72 x10E3/uL
same,LYMPHOCYTE,[1],94.67%
same,MEAN CORPUSCULAR HEMOGLOBIN,[1],25.37 pg
same,MEAN CORPUSCULAR HEMOGLOBIN CONCENTRATION,[1],39.85 G/DL
same,MONOCYTE,[1],0.17%
same,NEUTROPHIL,[1],5%
same,NUCLEATED RED BLOOD CELLS,[1],0 /100WBC
same,PLATELET COUNT,[1],1084 x10E3/uL
same,ALANINE AMINOTRANSFERASE,[1],67.5 u/L
same,ALBUMIN,[1],4.02 G/DL
same,ALKALINE PHOSPHATASE,[1],374.17 u/L
same,ASPARTATE AMINOTRANSFERASE,[1],83.5 u/L
same,BLOOD UREA NITROGEN,[1],14.5 mg/dL
same,CARBON DIOXIDE,[1],30 mmol/L
same,CHLORIDE,[1],100.5 MEQ/L
same,CHOLESTEROL,[1],71.33 mg/dL
same,CREATINE PHOSPHOKINASE,[1],268.33 u/L
same,CREATININE,[1],0.16 mg/dL
same,LACTATE DEHYDROGENASE,[1],81.17 u/L
same,LIPASE,[1],16.67 u/L
same,PHOSPHORUS,[1],10.07 mg/dL
same,POTASSIUM,[1],5.03 MEQ/L
same,SODIUM,[1],142.92 MEQ/L
same,TOTAL BILIRUBIN,[1],0.17 mg/dL
same,TOTAL PROTEIN,[1],5.63 G/DL
same,URIC ACID,[1],0.5 mg/dL
same,ABSOLUTE BASOPHIL,[2],0 CELLS/uL
same,ABSOLUTE EOSINOPHIL,[2],37.5 CELLS/uL
same,ABSOLUTE LYMPHOCYTE,[2],8049.5 CELLS/uL
same,ABSOLUTE MONOCYTE,[2],82.83 CELLS/uL
same,ABSOLUTE SEGMENTED NEUTROPHIL,[2],646.83 CELLS/uL
same,BASOPHIL,[2],0%
same,EOSINOPHIL,[2],0.5%
same,ERYTHROCYTE COUNT,[2],5.36 x10E6/uL
same,HEMATOCRIT,[2],33.9%
same,HEMOGLOBIN,[2],13.02 G/DL
same,LEUKOCYTE COUNT,[2],8.82 x10E3/uL
same,LYMPHOCYTE,[2],90.17%
same,MEAN CORPUSCULAR HEMOGLOBIN,[2],24.32 pg
same,MEAN CORPUSCULAR HEMOGLOBIN CONCENTRATION,[2],38.42 G/DL
same,MONOCYTE,[2],1.17%
same,NEUTROPHIL,[2],8.17%
same,NUCLEATED RED BLOOD CELLS,[2],0.17 /100WBC
same,PLATELET COUNT,[2],1231.5 x10E3/uL
same,ALANINE AMINOTRANSFERASE,[2],62 u/L
same,ALBUMIN,[2],3.97 G/DL
same,ALKALINE PHOSPHATASE,[2],303.67 u/L
same,ASPARTATE AMINOTRANSFERASE,[2],84.5 u/L
same,BLOOD UREA NITROGEN,[2],14.83 mg/dL
same,CARBON DIOXIDE,[2],31.83 mmol/L
same,CHLORIDE,[2],97 MEQ/L
same,CHOLESTEROL,[2],68.83 mg/dL
same,CREATINE PHOSPHOKINASE,[2],411.33 u/L
same,CREATININE,[2],0.16 mg/dL
same,LACTATE DEHYDROGENASE,[2],88.5 u/L
same,LIPASE,[2],9.5 u/L
same,PHOSPHORUS,[2],9.98 mg/dL
same,POTASSIUM,[2],5.72 MEQ/L
same,SODIUM,[2],141.62 MEQ/L
same,TOTAL BILIRUBIN,[2],0.1 mg/dL
same,TOTAL PROTEIN,[2],5.67 G/DL
same,URIC ACID,[2],0.52 mg/dL
same,ABSOLUTE BASOPHIL,[3],0 CELLS/uL
same,ABSOLUTE EOSINOPHIL,[3],0 CELLS/uL
same,ABSOLUTE LYMPHOCYTE,[3],11817.33 CELLS/uL
same,ABSOLUTE MONOCYTE,[3],150.67 CELLS/uL
same,ABSOLUTE SEGMENTED NEUTROPHIL,[3],1032 CELLS/uL
same,BASOPHIL,[3],0%
same,EOSINOPHIL,[3],0%
same,ERYTHROCYTE COUNT,[3],4.98 x10E6/uL
same,HEMATOCRIT,[3],32.63%
same,HEMOGLOBIN,[3],12.83 G/DL
same,LEUKOCYTE COUNT,[3],13 x10E3/uL
same,LYMPHOCYTE,[3],91.33%
same,MEAN CORPUSCULAR HEMOGLOBIN,[3],25.77 pg
same,MEAN CORPUSCULAR HEMOGLOBIN CONCENTRATION,[3],39.37 G/DL
same,MONOCYTE,[3],1%
same,NEUTROPHIL,[3],7.67%
same,NUCLEATED RED BLOOD CELLS,[3],0 /100WBC
same,PLATELET COUNT,[3],1118.67 x10E3/uL
same,ALANINE AMINOTRANSFERASE,[3],64.67 u/L
same,ALBUMIN,[3],4 G/DL
same,ALKALINE PHOSPHATASE,[3],377.67 u/L
same,ASPARTATE AMINOTRANSFERASE,[3],83.67 u/L
same,BLOOD UREA NITROGEN,[3],16.33 mg/dL
same,CARBON DIOXIDE,[3],32.67 mmol/L
same,CHLORIDE,[3],99.33 MEQ/L
same,CHOLESTEROL,[3],66.33 mg/dL
same,CREATINE PHOSPHOKINASE,[3],223.67 u/L
same,CREATININE,[3],0.16 mg/dL
same,LACTATE DEHYDROGENASE,[3],89 u/L
same,LIPASE,[3],9.67 u/L
same,PHOSPHORUS,[3],9.83 mg/dL
same,POTASSIUM,[3],5.42 MEQ/L
same,SODIUM,[3],143.77 MEQ/L
same,TOTAL BILIRUBIN,[3],0.13 mg/dL
same,TOTAL PROTEIN,[3],5.7 G/DL
same,URIC ACID,[3],0.53 mg/dL
